Molecules are shown by their SMILES. Where two headings read alike, the source gives them in different places.

From US9271962B2 (NORTHEASTERN UNIVERSITY, priority 2008, dated 2016) come the findings set out here.

One assay concerns the target T1, hMGL (Homo sapiens, UniProt Q99685).
T1 construct: A full-length cDNA clone of the human MGL transcript variant 1; made in house; host or cells: E. coli BL21 (DE3)
T1 sequence (Q99685 2-303 limits assumed): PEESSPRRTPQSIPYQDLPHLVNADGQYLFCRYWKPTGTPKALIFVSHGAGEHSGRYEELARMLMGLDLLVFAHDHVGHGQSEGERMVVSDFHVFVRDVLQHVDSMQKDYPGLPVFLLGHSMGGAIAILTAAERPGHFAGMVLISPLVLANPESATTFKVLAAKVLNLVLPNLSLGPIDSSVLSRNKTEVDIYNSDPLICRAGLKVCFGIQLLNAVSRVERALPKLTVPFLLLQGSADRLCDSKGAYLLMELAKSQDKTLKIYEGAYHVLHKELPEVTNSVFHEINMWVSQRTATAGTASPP
In words: Fluorescent enzyme assay, MGL (AHMMCE hydrolysis). Format: biochemical. As to conditions: for inhibition at 1 µM: 1000 nM inhibitor; for inhibition at 0.01 µM: read-out: % Inhibition of Enzyme by inhibitor, MGL, 10 nM; for inhibition at 100 µM: 100 uM inhibitor, printed in the 1000 nM column. The procedure: (§1) Some analogs were tested for their FAAH/MGL inhibitory activity, which is expressed as % of inhibition (Tables 2, 3, and 4 below). The percentage of inhibition results from three-point assay (three concentrations of inhibitor are used) and it is less accurate (preliminary screening) than the IC50/Ki values that are determined from eight-point assay (eight different concentrations of inhibitor were used). The percentage of inhibition describes the percentage by which the inhibitor reduces the velocity/rate of AAMCA (arachidonoyl-7-amino-4-methylcoumarin amide) or AHMMCE (arachidonoyl-7-hydroxy-6-methoxy-4-methylcoumarin ester) hydrolysis by FAAH or MGL respectively. The IC50 is the concentration of the inhibitor, which results in 50% inhibition of the velocity/rate of AAMCA (arachidonoyl 7-amino-4-methylcoumarin amide) hydrolysis by FAAH or AHMMCE (Arachidonoyl, 7-hydroxy-6-methoxy-4-methylcoumarin ester) hydrolysis by MGL. The Ki value is the affinity constant and describes the ability of the compounds to inhibit the function of FAAH or MGL. The lower the IC50/Ki values, the higher the affinity of the inhibitor for the enzyme and the higher its inhibitory activity. A detailed description of the methods used to test inhibitory activity of compounds is given below.
A full-length cDNA clone of the human MGL transcript variant 1 (gi: 51242951) was obtained from OriGene Technologies (Rockville, Md.). The coding part of the MGL sequence (except the translation initiation codon ATG) was amplified by a polymerase chain reaction (PCR) using forward […] and reverse […] primers containing PmlI and SacI restriction enzyme recognition sites, respectively. iProof high-fidelity DNA polymerase (Bio-Rad, Hercules, Calif.) was used in the PCR amplification with 33 cycles, each consisting of denaturation at 94° C. for 10 s, annealing at 55° C. for 33 s, and extension at 72° C. for 1 min. The PCR product and pET45b vector were digested with PmlI and SacI restriction enzymes, and the vector was dephosphorylated with CIP followed by in-gel purification using the MinElute Gel Extraction Kit (Qiagen Corp., Valencia, Calif.). The fragment was inserted into the vector directly downstream after the 6 histidine and valine codons, generating the construct pET45His6hMGL for expression of hMGL containing an N-terminal His6-tag. GC10 E. coli cells were used for DNA transformation and plasmid propagation. Mini- and midi-scale plasmid DNA preparations were performed using a GenElute Plasmid Miniprep Kit (Sigma) and PureYield Plasmid Midiprep System (Promega, Madison, Wis.), respectively. In-frame vector-fragment junctions and the coding sequence of the recombinant gene were confirmed by sequencing. The pET45His6hMGL construct was transformed into BL21 (DE3) and Origami (DE3) E. coli expression strains (Novagen, Madison, Wis.).
A single E. coli BL21 (DE3) colony containing the pET45His6hMGL plasmid was inoculated into 12 mL of Luria broth-ampicillin medium and grown overnight with shaking (250 rpm) at 37° C. The next morning, 10 mL of this culture was inoculated into 1 L of fresh Luria broth-ampicillin and allowed to grow until culture turbidity reached an (OD)600 of 0.6-0.8, at which time expression from the T7 promoter was induced by adding isopropyl-β-D-thio-galactopyranoside (1 mM). After 5 h induction, the cells were harvested by centrifugation at 5,000 g for 10 min at 4° C., washed with PBS, and held at −80° C. Five grams (wet-weight) of cells were resuspended in 50 mL lysis buffer (100 mM NaCl; 50 mM Tris, pH 8.0) supplemented with Triton X-100 (0.5%), lysozyme (0.2 mg/mL), and DNase I (25 μg/ml) and disrupted on ice by three, one-min sonication cycles, each consisting of 1-sec sonication bursts at 50 W power separated from each other by a 2-sec interval (Vibra-Cell 500 W, Sonics, Newtown, Conn.). The cell lysate was centrifuged at 10,000 g for 30 min at 4° C. […]

The target of a further assay is T2, ΔTM rFAAH (Rattus norvegicus, UniProt P97612).
T2 construct: 15 ug of ΔTM rFAAH (cell lysate obtained by recombinant procedure); made in house
T2 sequence (P97612 30-579 limits assumed): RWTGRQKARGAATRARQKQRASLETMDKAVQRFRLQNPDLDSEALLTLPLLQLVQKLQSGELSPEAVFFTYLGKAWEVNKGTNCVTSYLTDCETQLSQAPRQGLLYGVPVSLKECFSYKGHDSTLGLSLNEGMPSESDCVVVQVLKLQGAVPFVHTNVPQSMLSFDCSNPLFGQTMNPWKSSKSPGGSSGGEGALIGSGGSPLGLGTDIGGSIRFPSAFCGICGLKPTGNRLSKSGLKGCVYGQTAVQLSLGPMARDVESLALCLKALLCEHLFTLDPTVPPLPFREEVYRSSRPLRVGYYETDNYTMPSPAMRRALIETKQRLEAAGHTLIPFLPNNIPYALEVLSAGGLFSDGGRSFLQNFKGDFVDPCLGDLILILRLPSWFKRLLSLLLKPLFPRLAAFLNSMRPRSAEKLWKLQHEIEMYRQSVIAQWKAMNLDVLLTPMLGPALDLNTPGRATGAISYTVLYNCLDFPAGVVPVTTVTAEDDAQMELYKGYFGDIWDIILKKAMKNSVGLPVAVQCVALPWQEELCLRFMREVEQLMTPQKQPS
In words: Fluorescent enzyme assay, FAAH (AAMCA hydrolysis). Format: biochemical. The settings on record: for inhibition at 0.01 µM: 10 nM inhibitor; for inhibition at 0.01 µM / inhibition at 1 µM: screening assay; for inhibition at 1 µM: 1000 nM inhibitor. The procedure:
as §1
The enzyme (FAAH and MGL) assays were performed in 96 well plates (Coster #3650) in a total volume of 200 uL. Fluorogenic substrate AAMCA (arachidonoyl 7-amino-4-methylcoumarin amide) for FAAH and AHMMCE (arachidonoyl 7-hydroxy-6-methoxy-4-methylcoumarin ester) for MGL were used using BioTek Synergy HT Microplate Reader. Compounds and substrates were dissolved in DMSO provide a 10 mM stock solution and kept as a stock solution at −20° C. until used for assay. Stock solutions were thawed and reconstituted in 50:50 DMSO/assay buffer to a final DMSO concentration per well below 8%. This ensures that the compounds and substrate are in solution during assay. […] Appropriate substrate was added to adjust the final concentration in each well to 20 uM for FAAH (2× Km) and 10 uM for MGL (1×KM). Fluorescence readings were performed at λex=360/λem=460 for 4 h using Kinetic assay protocol at every 20 min (the fluorescent product coumarin produced is quantitated by this procedure). The readings at 3 h for FAAH and 2 h for MGL (linear maximum hydrolysis kinetics of enzyme on substrate) were used to calculate percent inhibition based on controls. Compounds which had more than 50 percent inhibition at 10 uM were selected for dose response study to determine IC50 values. The dose response at 8 concentration points was performed as with the screening assay except that compounds were serially diluted to 8 concentration points which were chosen based on IC50 value, which were calculated from the screening assay results. Assays are run twice in triplicates and Graphpad Prism software is used to plot inhibition data to obtain IC50 values.

Where [1] appears, read: AHMMCE substrate, screening assay.
Where [2] appears, read: 10 nM inhibitor, AHMMCE substrate, screening assay.

In turn, `CN(CCCCN=C=S)C(=O)n1cnc(-c2ccccc2)c1` [Compound 49, N-(4-isothiocyanatobutyl)-N-methyl-4-phenyl-1H-imidazole-1-carboxamide] displayed an inhibition at 1 µM against hMGL (setting [1]) of 7%. In addition, at ΔTM rFAAH (AAMCA substrate), the inhibition at 0.01 µM was 25% and the inhibition at 1 µM stood at 90%. Also, the IC50 on ΔTM rFAAH (eight-point dose response, AAMCA substrate) came out at 42 nM.

Regarding `CN(C)C(=O)n1nnc(Cc2ccc([N+](=O)[O-])cc2)n1` [Compound 22a, N,N-dimethyl-5-(4-nitrobenzyl)-2H-tetrazole-2-carboxamide], the inhibition at 0.01 µM was 97% on hMGL (setting [2]) and 92% on ΔTM rFAAH (AAMCA substrate).

Take `CN(C)C(=O)Oc1ccc(Cc2nnnn2C(=O)N(C)C)cc1` [Compound 36b, 4-((1-(dimethylcarbamoyl)-1H-tetrazol-5-yl)methyl)phenyl dimethylcarbamate]: the inhibition at 0.01 µM on hMGL was determined as 98%; at ΔTM rFAAH (AAMCA substrate), 82%.

For `CN(C(=O)n1nnc(Cc2ccc(Cl)cc2Cl)n1)c1ccccc1` [Compound 7a, 5-(2,4-dichlorobenzyl)-N-methyl-N-phenyl-2H-tetrazole-2-carboxamide], the inhibition at 0.01 µM on hMGL (setting [2]) came to 58%; on ΔTM rFAAH (AAMCA substrate), 84%.

For `CN(C)C(=O)N1CC(Cc2ccccc2)OC1=O` (stereo not shown) [Compound 32, 5-benzyl-N,N-dimethyl-2-oxooxazolidine-3-carboxamide], the inhibition at 1 µM at hMGL (setting [1]) is 3%; on ΔTM rFAAH (AAMCA substrate), 5%.

Consider `CN(C)C(=O)n1nnnc1Cc1ccc(OC(F)(F)F)cc1` [Compound 19b], for which the values for the inhibition at 0.01 µM at hMGL (setting [2]) and on ΔTM rFAAH (AAMCA substrate) were 76% and 91%, respectively.

As for `CN(C)C(=O)n1cnc2nc(OCc3ccccc3)ncc21` [Compound 59, 2-(benzyloxy)-N,N-dimethyl-7H-purine-7-carboxamide], the inhibition at 100 µM at hMGL was 86%; on ΔTM rFAAH (100 uM inhibitor, printed in the 1000 nM column), 10%.

Take `CN(C)C(=O)n1cnc(-c2ccccc2)c1` [Compound 33, N,N-dimethyl-4-phenyl-1H-imidazole-1-carboxamide]: the inhibition at 1 µM stood at 6% against hMGL (setting [1]) and 88% at ΔTM rFAAH (AAMCA substrate).

On to `CN(C)C(=O)N1C=NC2C(N=CN2C(=O)N(C)C)C1=O` (stereo not shown) [Compound 62, N^1,N^1,N^9,N^9-tetramethyl-6-oxo-5,6-dihydro-4H-purine-1,9-dicarboxamide], for which the inhibition at 1 µM against hMGL (setting [1]) was determined as 83%; at ΔTM rFAAH (AAMCA substrate) it was 99%.

Consider `CN(C)C(=O)n1nnc(Cc2ccccc2)n1` [Compound 34, 5-benzyl-N,N-dimethyl-2H-tetrazole-2-carboxamide], for which the inhibition at 0.01 µM on hMGL (setting [2]) worked out at 100%; at ΔTM rFAAH (AAMCA substrate), 91%.

Take `CN(C)C(=O)n1nnc2ccccc21` [Compound 28, N,N-dimethyl-1H-benzo[d][1,2,3]-triazole-1-carboxamide]: the inhibition at 0.01 µM amounted to 30% on hMGL (setting [2]) and 67% at ΔTM rFAAH (AAMCA substrate).

Turning to `CN(C)C(=O)n1cc(Cc2ccccc2)nn1` [Compound 70, 4-benzyl-N,N-dimethyl-1,2,3-triazole-1-carboxamide], the inhibition at 1 µM against hMGL (setting [1]) is 99%; on ΔTM rFAAH (AAMCA substrate) it was 98%.

Take `CN(CCCCCl)C(=O)n1cnc(-c2ccccc2)n1` [Compound 53, N-(4-chlorobutyl)-N-methyl-3-phenyl-1H-1,2,4-triazole-1-carboxamide]: the inhibition at 0.01 µM at hMGL (setting [2]) is 13%. Besides, the inhibition at 1 µM against hMGL (setting [1]) was 71%; on ΔTM rFAAH (AAMCA substrate), 100%.

In the case of `CN(C)C(=O)n1nnnc1CC(=O)c1ccccc1` [Compound 4, N,N-dimethyl-5-(2-oxo-2-phenylethyl)-1H-tetrazole-1-carboxamide], the inhibition at 0.01 µM at hMGL (setting [2]) is 90%; at ΔTM rFAAH (AAMCA substrate) it was 100%.

For `O=C(N1CCN(Cc2ccccc2)CC1)n1nnc(Cc2ccc(Cl)cc2Cl)n1` [Compound 15], the inhibition at 1 µM against hMGL (setting [1]) came out at 63%; at ΔTM rFAAH (AAMCA substrate) it was 95%.

For `COc1ccc(Cc2nnnn2C(=O)N(C)C)cc1` [Compound 24b], the inhibition at 1 µM was determined as 96% at hMGL (setting [1]) and 100% on ΔTM rFAAH (AAMCA substrate).

`CN(C)C(=O)n1nnc(Cc2ccc3ccccc3c2)n1` [Compound 51] showed an inhibition at 100 µM at hMGL of 26%. In addition, at ΔTM rFAAH (AAMCA substrate), the inhibition at 1 µM was 30%.

Regarding `CN(C)C(=O)n1nnc(Cc2ccc(Cl)cc2Cl)n1` [Compound 17a, 5-(2,4-dichlorobenzyl)-N,N-dimethyl-2H-tetrazole-2-carboxamide], the inhibition at 0.01 µM worked out at 99% at hMGL (setting [2]) and 93% at ΔTM rFAAH (AAMCA substrate).

`CN(C)C(=O)n1nnnc1Cc1cccnc1` [Compound 5, N,N-dimethyl-5-(pyridin-3-yl-methyl)-1H-tetrazole-1-carboxamide]: the values for the inhibition at 0.01 µM on hMGL (setting [2]) and at ΔTM rFAAH (AAMCA substrate) were 81% and 84%, respectively.

Consider `CN(C)C(=O)n1nnnc1Cc1ccc([N+](=O)[O-])cc1` [Compound 22b], for which the values for the inhibition at 0.01 µM at hMGL (setting [2]) and on ΔTM rFAAH (AAMCA substrate) were 22% and 85%, respectively.

One may read the inhibition as the change of the read-out against control, counted positive when it falls. By IC50 is commonly meant the concentration that inhibits the measured activity by half.
